Assay: xn = mol fraction of the nth substance listed
Conditions: Liquid, Time-dependent Raman spectra, x1 = 0

## C [methane] + O
273 K, 20000 kPa
  binary diffusion coefficient: 7.02e-10 m2/s
298 K, 5000 kPa
  binary diffusion coefficient: 1.61e-09 m2/s
298 K, 10000 kPa
  binary diffusion coefficient: 1.63e-09 m2/s
298 K, 20000 kPa
  binary diffusion coefficient: 1.64e-09 m2/s
298 K, 30000 kPa
  binary diffusion coefficient: 1.6e-09 m2/s
298 K, 40000 kPa
  binary diffusion coefficient: 1.62e-09 m2/s
313 K, 20000 kPa
  binary diffusion coefficient: 2.39e-09 m2/s
353 K, 5000 kPa
  binary diffusion coefficient: 4.85e-09 m2/s
353 K, 10000 kPa
  binary diffusion coefficient: 5e-09 m2/s
353 K, 20000 kPa
  binary diffusion coefficient: 4.98e-09 m2/s
353 K, 30000 kPa
  binary diffusion coefficient: 4.79e-09 m2/s
353 K, 40000 kPa
  binary diffusion coefficient: 4.8e-09 m2/s
393 K, 5000 kPa
  binary diffusion coefficient: 8.59e-09 m2/s
393 K, 10000 kPa
  binary diffusion coefficient: 8.7e-09 m2/s
393 K, 20000 kPa
  binary diffusion coefficient: 8.68e-09 m2/s
393 K, 30000 kPa
  binary diffusion coefficient: 8.45e-09 m2/s
393 K, 40000 kPa
  binary diffusion coefficient: 8.08e-09 m2/s
433 K, 20000 kPa
  binary diffusion coefficient: 1.25e-08 m2/s
473 K, 20000 kPa
  binary diffusion coefficient: 1.71e-08 m2/s

Source: the NIST ThermoML archive (doi:10.1016/j.fluid.2013.09.051)
